Data set [1] concerns GST-XIAP BIR2. In words: binding of XIAP-BIR2 to biotinylated peptides on Neutravidin plates. Conditions: biotinylated peptides adsorbed to Neutravidin-coated plates. From the text:
Bound GST polypeptides were detected with an anti-GST antibody.

The target in data set [2] is GST-BIR2 (XIAP fragment). Kind of data set: fluorescence polarization binding of rhodamine-SMAC. The protocol:
Assays were run in 50 mM Tris @ pH 7.2/100 mM NaCl/0.1% BSA.
For orientation: In fluorescence polarisation assays a small probe gives low polarisation when free and higher when bound to something large.

For data set [3], the system named is PPC1 prostate cancer cells. Kind of data set: PPC1 tumor xenograft. The class given is in vivo, Balb/C nu-/nu- mice. Conditions: 30 mg/kg i.p. for 2 or 3 days. From the text: Similar data was obtained using TPI 1396-22 (see FIG. 33a and 33b). […] In FIG. 33b, the mice were sacrificed at day 19 and the tumors excised and weighed.
In data set [4] the target is full length XIAP (Homo sapiens, UniProt P98170). Kind of data set: potency of IAP antagonists at restoring caspase-3 activity / SMAC competition assay (Table VIII). Conditions: for EC50: amount of compound necessary to restore caspase-3 activity to 50% of Vmax; for Relative Potency: fold relative to SMAC AVPI tetrapeptide.
Data set [5] concerns the target T1, XIAP-inhibited caspase-3 (Homo sapiens, UniProt P98170).
T1 construct: in the derepression assay using full length XIAP; made in house; host or cells: bacteria
Kind of data set: caspase derepression assay (XIAP-inhibited caspase-3, Ac-DEVD-AFC hydrolysis). The class given is biochemical. On the procedure: Caspase activity was assayed by release of 7-amino-4-trifluoromethyl-coumarin (AFC) from Ac-DEVD-AFC synthetic peptide using a Molecular Devices Spectromax 340 (see Zhou et al., J. Biol. Chem. 272:7797–7800 (1997)). […] The ratio of Vmax for hydrolysis of Ac-DEVD-AFC in the presence and absence of the candidate mixture was calculated and used to identify those that contain an agent that derepresses an IAP-inhibited caspase.
Screening of each mixture from the DCR390, TPI 1239 or TPI 1328 library, respectively, using the above described assay was carried out as follows. Each mixture was aliquoted in a 25 microliter volume and in duplicate to a well of a 96 well microtiter plate. […] Fluorescence of liberated AFC was immediately detected from each well for 30 minutes at 30 second intervals. The Vmax for hydrolysis of AC-DEVD-AFC from each well was measured using the softmax software package. Results of the screen for the DCR390 library are shown in Table I. Sets of mixtures having the same position fixed with different respective amino acids are arranged in 6 sections identified with the position number. […] The mixture in each section are arranged in descending order according to apparent velocity in the second column.
Briefly, recombinant proteins were produced in bacteria and purified as described, for example, in Deveraux et al., Nature 388:300–304(1997). […] Generation of fluorogenic AFC (7-amino-4-trifluoromethyl coumarin) product was measured with a spectrofluorometric plate reader in kinetic mode for 30 minutes at 37° C. using excitation and emission wavelengths of 405 nm and 510 nm, respectively. […] Control reactions lacked XIAP, and all assays were conducted in the linear range of substrate hydrolysis to avoid substrate depletion artifacts.

Data set [6] concerns NCI panel of 60 tumor cell lines. In words: NCI panel of 60 tumor cell lines, protein-based colorimetric assay. Also on record: species or system human. Particulars: 48 hours. The protocol: Selected polyphenylurea compounds were tested on the National Cancer Institute (NCI) panel of 60 tumor cell lines (see FIG. 28a and FIG. 29).
The test system of data set [7] is Jurkat leukemia cells. Kind of data set: Jurkat cell death (Annexin V / propidium iodide flow cytometry). It is filed as cell-based. Particulars: for % nonviable cells: 20 hours; for cells killed: one day treatment. The protocol:
The following assay was used to test the ability of individual compounds from the TPI 1396 and TPI 1391 libraries to induce apoptosis of cultured tumor cell lines. Each of the compounds listed in Table IX was individually added to Jurkat leukemia cells (6.25×10^5 cells/mL) in RPMI containing 2.5% FBS at various concentrations for 20 hours. After incubation, cells were washed and stained with FITC-conjugated Annexin V antibody and propidium iodide (Biovision; Mountain View, Calif.). Cells were incubated for 20 minutes at room temperature in the dark and fluorescence was measured by flow cytometry (FACScan, Immunocytometry system; Becton-Dickinson; San Jose, Calif.). Cells staining positive for Annexin V were deemed non-viable.
A general note: In flow cytometry, cells or beads pass a laser one at a time.

The test system of data set [8] is mouse embryo fibroblasts (MEFs). In words: mechanism-based toxicity in MEFs from XIAP -/- and wild type mice (MTT). It is filed as cell-based. Particulars: MEFs with or without SV40 large T antigen. On the procedure:
Cells were either tested directly at low passage (FIGS. 38A and C) or after transformation by infection with a retrovirus encoding SV40 large T antigen (FIGS. 38B and D). […] Cell viability was measured by MTT assay, expressing data as a percentage relative to control, untreated cells. Data shown in FIG. 38A–D represent mean±standard deviation of triplicate determinations.

Data set [9] has as its system ALVA31 prostate cancer cells. In words: ALVA31 cell viability (XTT dye-reduction and trypan blue exclusion). It is filed as cell-based. Particulars: peptides 40 μM, VP-16 100 μM, 24 hrs. On the procedure: The in vivo effects of TPI 792-33 or TPI 792-35, either individually or in combination with the cytotoxic anticancer drug VP-16 (etoposide), on derepression of XIAP-inhibited caspase and viability of ALVA31 cells was determined as follows. ALVA31 prostate cancer cells were seeded onto 96 well plates (10^4 cells/well) in 100 μL RPMI containing 2.5% fetal bovine serum (FBS). […] After another 24 hrs incubation, cell viability was measured by the XTT dye-reduction assay (Roche, Molecular Biochemicals; Indianapolis, Ind.) and trypan blue dye exclusion assay.
(In general: Formazan colour is commonly taken as a measure of viable cells.)

The test system of data set [10] is NCI panel of 60 tumor cell lines. Particulars: same assay, comparison drug; cited from earlier work.
The subject of data set [11] is normal bone marrow mononuclear cells. In words: normal bone marrow cell toxicity (Annexin V). The class given is cell-based. Particulars: 5 μM, 20 hours. On the procedure:
After incubation, cells were washed, stained with FITC-conjugated Annexin V antibody and propidium iodide, and fluorescence measured by flow cytometry as described above.

Square brackets hold non-standard residues; d marks the D form. Ends that are not written are not given here. Peptide text beside a SMILES is read from it. * marks the point of attachment. 5TAMRA = CN(C)c1ccc2c(c1)Oc1cc(N(C)C)ccc1C21OC(=O)c2cc(C(=O)*)ccc21; Phe(4-Cl) = N[C@@H](Cc1ccc(Cl)cc1)C(=O)O; 2Nal = N[C@@H](Cc1ccc2ccccc2c1)C(=O)O; Fmoc = O=C(OCC1c2ccccc2-c2ccccc21)*; 2Thi = N[C@@H](Cc1cccs1)C(=O)O

full length XIAP, sequence (P98170 whole entry): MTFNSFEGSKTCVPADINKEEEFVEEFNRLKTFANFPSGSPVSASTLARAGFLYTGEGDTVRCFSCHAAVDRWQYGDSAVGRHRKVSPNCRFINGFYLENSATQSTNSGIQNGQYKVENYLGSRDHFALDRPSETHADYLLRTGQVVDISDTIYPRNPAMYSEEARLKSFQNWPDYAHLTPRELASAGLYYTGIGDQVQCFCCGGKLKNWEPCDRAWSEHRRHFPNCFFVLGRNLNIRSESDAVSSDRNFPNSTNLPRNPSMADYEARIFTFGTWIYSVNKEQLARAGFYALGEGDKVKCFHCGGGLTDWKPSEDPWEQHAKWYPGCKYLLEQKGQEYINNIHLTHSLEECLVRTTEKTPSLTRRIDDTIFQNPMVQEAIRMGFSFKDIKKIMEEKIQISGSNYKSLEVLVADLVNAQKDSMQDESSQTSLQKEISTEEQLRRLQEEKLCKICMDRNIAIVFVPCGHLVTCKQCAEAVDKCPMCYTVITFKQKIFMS
GST-XIAP BIR2, sequence (P98170 124-240 limits assumed): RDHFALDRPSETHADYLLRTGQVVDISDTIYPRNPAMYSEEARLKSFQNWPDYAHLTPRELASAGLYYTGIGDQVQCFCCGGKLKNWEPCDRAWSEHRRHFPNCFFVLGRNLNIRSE
T1 sequence (P98170 whole entry): as the sequence (P98170 whole entry) above

“TPI 1554-2: biotinylated TPI 1453-6 ([2Thi][2Nal][dK](Fmoc)K(Fmoc); also: biotinylated (site not given here))”: the “binding to XIAP-BIR2” value in [1] is “comparable to the binding of SMAC peptides”.

By Kd is commonly meant a measure of binding affinity in units of concentration. Read a high Kd as weaker binding. Regarding `CC[C@H](C)[C@H](NC(=O)[C@@H]1CCCN1C(=O)[C@@H](NC(=O)[C@H](C)N)C(C)C)C(=O)N[C@@H](C)C(=O)N[C@@H](CCC(N)=O)C(=O)N[C@@H](CCCCNC(=O)c1ccc2c(c1)C(=O)OC21c2ccc(N(C)C)cc2Oc2cc(N(C)C)ccc21)C(N)=O` [Rhodamine-SMAC] (H-AVPIAQK(5TAMRA)-NH2; N-terminus and C-terminus assumed), in data set [2], binding was put at a Kd of 20 µM.

What is called EC50 is the concentration needed to bring the measured effect to its halfway point. For `COc1ccc(CCN2CCCC2CN(C(=O)Nc2ccccc2)C(CNC(=O)Nc2ccccc2)Cc2ccc3ccccc3c2)cc1` (stereo not drawn) [TPI 1396-22], the “tumor growth / tumor size” value in data set [3] was “significantly slowed the rate of growth”. For the same compound, in data set [4], a half-maximal response (EC50) required 45.3 µM and the “Relative Potency” value is reported as 2.8. The “Activity (relative caspase-3 activity, ratio of Vmax with compound to Vmax of caspase-3 and XIAP controls)” value in data set [5] (Table X, R2 = L-Proline) is 3.3. Also, the “activity in the derepression assay using full length XIAP” value in data set [5] (active / inactive) is recorded as “active”. In data set [6], the “average LD50 for the 60 cell lines” value turned out to be 11 ± 2.6 µM and the “median LD50 for the 60 cell lines” value is 22 µM.

In data set [4], `CCCCCCCN1C(=O)C(=O)N(C(CCCC)CNCc2ccccc2)CC1Cc1ccc2ccccc2c1` (stereo not drawn) [TPI 1391-21] came in with an EC50 of 33.6 µM. Further, the “Relative Potency” value in data set [4] was 3.7. The “% nonviable cells” value in data set [7] (1 μM) turned out to be 16%; in data set [7] (5 μM (first column headed 5)), 11%; in data set [7] (5 μM (second column headed 5)) it was 18%; in [7] (10 μM), 44%; in data set [7] (25 μM), 91%; in data set [7] (50 μM), 94%.

Regarding “TPI 1554-1: biotinylated TPI 1453-1 ([2Thi][2Nal][Phe(4-Cl)]K(Fmoc); also: biotinylated (site not given here))”, the “binding to XIAP-BIR2” value in data set [1] is given as “comparable to the binding of SMAC peptides”.

Regarding `COc1cccc2c1C(=O)c1c(O)c3c(c(O)c1C2=O)C[C@@](O)(C(C)=O)C[C@@H]3O[C@H]1C[C@H](N)[C@H](O)[C@H](C)O1` [daunorubicin], in [8], the “selectivity for transformed versus non-transformed cells” value is given as “do not display selectivity for transformed cells”.

As to `COc1cc([C@@H]2c3cc4c(cc3[C@@H](O[C@@H]3O[C@@H]5CO[C@@H](C)O[C@H]5[C@H](O)[C@H]3O)[C@H]3COC(=O)[C@H]23)OCO4)cc(OC)c1O` [VP-16, etoposide], the “effect on cell viability, agent alone” value in data set [9] was “essentially no effect”. For the same compound, the “mean LD50 in the NCI panel of 60 tumor cell lines” value in [10] is 200 ± 2.5 µM.

`CC(C)CC1CN(C(CNCc2ccccc2)Cc2ccc3ccccc3c2)C(=O)C(=O)N1CCc1cccc(C(F)(F)F)c1` (stereo not drawn) [TPI 1391-28]: the EC50 in data set [4] is 25.1 µM; in data set [7] (one-day exposure, 0 to 20 μM, read-out: EC50 for killing Jurkat leukemia cells), around 6.5 µM. The “Relative Potency” value in data set [4] is given as 5. Further, in data set [11], the “toxicity to normal bone marrow cells” value was “little toxicity”. For the same compound, the “% nonviable cells” value in [7] (1 μM) is recorded as 19%; in data set [7] (5 μM (first column headed 5)), 12%; in data set [7] (5 μM (second column headed 5)), 28%; in data set [7] (10 μM), 55%; in data set [7] (25 μM) it was 87%; in data set [7] (50 μM), 91%. For the same compound, the cells killed entry in data set [7] (5 μM) is on record as “about 45%”; in [7] (8 μM), around 80%.

The record behind these values is patent publication US7217688B2, “Methods and compositions for derepression of IAP-inhibited caspase” (The Burnham Institute, priority 2005, dated 2007).
